In paper PMC12035797, “Peptidomimetics Activating the Proteasome: A New Perspective for Parkinson’s Treatment” (Journal of Medicinal Chemistry, 2025):

Assays:
[1] = tested on: hippocampal neurons containing Lewy body-like pS129-αsyn aggregates; test: pS129-α-synuclein aggregates in PFF-treated hippocampal neurons; format: cell-based, mouse; settings: 7 days after PFFs
Source text: Encouraged by the results received, we tested the ability of the modulator-CPP constructs to increase α-synuclein degradation in a cell model using primary mouse neuronal cells. The presence of Lewy-like neurites and Lewy-like bodies containing aggregated α-synuclein with phosphorylated serine 129 (pS129-αsyn) is a characteristic feature of the brains of people with Parkinson’s disease. To mimic these aggregations, we introduced a solution of preformed fibrils (PFFs) to the media of neuronal cells, which led to the induction of α-synuclein phosphorylation and its aggregation in neurons isolated from mouse embryos. PFFs are purified, prion-like fibrils of α-synuclein that are produced by expressing a recombinant monomeric protein in bacteria. Seven days after PFFs are introduced to the cells, large aggregates are visible in the cell soma, often next to the cell nucleus. We added the PFF solution to the hippocampal cells, and after an hour of incubation, we introduced solutions of the activator. After 7 days, we immunostained neuronal cells using a monoclonal antibody against the NeuN protein, which is commonly used in neuronal differentiation studies to assess their functional status. Additionally, we stained the nuclei of all incubated cells with DAPI. […] It is noteworthy that the number of cells in samples with activators was slightly higher (Figure 5), which may indicate neuroprotective properties. […] The main tool for monitoring this process was an antibody against pS129-αsyn. […] The fluorescent microscopy images (Figure 5) show the difference between the amounts of aggregated protein in the control sample and in the samples containing activators at different concentrations.
Cells were isolated from pregnant mouse embryos at E16.0 and plated on precoated with poly-L-lysine wells of 96-well plates (PerkinElmer/Revvity Inc., Waltham, MA, USA) at 25,000 cells/well. The final medium volume was 150 μL/well. Cells were incubated at 37 °C, 5% CO2. […]

[2] = tested on: T1, proteasome in HEK293T cell lysate; test: Proteasome activity in the HEK293T cell lysate, Suc-LLVY-AMC; format: biochemical, human
T1 construct: endogenous in cells; host or cells: HEK293T cell lysate
Method: To assess whether activators are able to stimulate the proteasome in the cellular environment, we conducted experiments using the HEK293T cell lysate. […] The experiment was carried out as it was described.[25] Briefly, HEK293T cells were lysed, and the lysate was treated with the modulators at a concentration of 1, 2.5, 5, 10, and 25 μM, only in the case of modulators with the TAT or 6R sequence attached were the concentrations 0.5, 1, 2.5, 5, and 10 μM. The proteasome activity was probed using Suc-LLVY-AMC substrate. One μM bortezomib was used as a negative control. All experiments were performed in at least three independent replicates. One-way ANOVA with Tukey’s post-hoc test was used to determine statistical significance.

SMILES: C[C@@H](O)[C@H](NC(=O)[C@H](Cc1ccccc1)NC(=O)[C@H](Cc1ccc(O)cc1)NC(=O)CN(CCCCN)C(=O)[C@H](CCCNC(=N)N)NC(=O)[C@H](CCCNC(=N)N)NC(=O)[C@H](CCCNC(=N)N)NC(=O)[C@H](CCC(N)=O)NC(=O)[C@H](CCCNC(=N)N)NC(=O)[C@H](CCCNC(=N)N)NC(=O)[C@H](CCCCN)NC(=O)[C@H](CCCCN)NC(=O)[C@@H](N)CCCNC(=N)N)C(=O)NCC(=O)N[C@@H](CO)C(=O)N[C@@H](CCCCN)C(=O)N[C@@H](CC(=O)O)C(=O)N[C@@H](Cc1c[nH]c2ccccc12)C(=O)N[C@@H](CCCNC(=N)N)C(=O)N[C@@H](CO)C(=O)N[C@@H](Cc1ccc(O)cc1)C(=O)N[C@@H](Cc1ccc(O)cc1)C(=O)N[C@@H](CO)C(=O)O [1f]
- effect on hippocampal cells containing α-synuclein aggregates ([1]; 0.5 and 2.5 μM): effectively reduced the number of hippocampal cells containing α-synuclein
- reduction of the number of aggregates formed ([1]; very low concentration): 50%
- activation of the proteasome in HEK293T cell lysate ([2]; 5 μM): approximately 4 fold
- efficacy in HEK293T cell lysate ([2]; compared with 1a): higher efficacy than their parent compound 1a
